Data reported in patent publication US9107446B2, “Solubilizates of preservatives and method for producing the same” (AQUANOVA AG, priority 2006, dated 2015).
Where two headings read alike, the source gives them in different places.

Experiments:
Saccharomyces cerevisae = details: pH 6.2, room temperature; for Bacteria Count: 0.4 ml yeast solution
[1] = cited from earlier work
bacteria = details: 500 mg added to nutrient solution with agar; about three weeks contact time
[2] = in water; cited from earlier work

O=C(O)c1ccccc1 [Benzoic Acid]
Bacteria Count (Saccharomyces cerevisae; Benzoic Acid Concentration 10 ppm, After 3 days): 1,650,000/ml
Bacteria Count (Saccharomyces cerevisae; Benzoic Acid Concentration 10 ppm, After 7 days): 1,200,000/ml
Bacteria Count (Saccharomyces cerevisae; Benzoic Acid Concentration 10 ppm, After 15 days): 800,000/ml
Bacteria Count (Saccharomyces cerevisae; Benzoic Acid Concentration 10 ppm, After 22 days): 1,100,000/ml
Bacteria Count (Saccharomyces cerevisae; Benzoic Acid Concentration 10 ppm, After 29 days): 1,300,000/ml
Bacteria Count (Saccharomyces cerevisae; Benzoic Acid Concentration 10 ppm, Initial): 2,900/ml
Bacteria Count (Saccharomyces cerevisae; Benzoic Acid Concentration 50 ppm, After 3 days): 1,900,000/ml
Bacteria Count (Saccharomyces cerevisae; Benzoic Acid Concentration 50 ppm, After 7 days): 1,100,000/ml
Bacteria Count (Saccharomyces cerevisae; Benzoic Acid Concentration 50 ppm, After 15 days): 900,000/ml
Bacteria Count (Saccharomyces cerevisae; Benzoic Acid Concentration 50 ppm, After 22 days): 930,000/ml
Bacteria Count (Saccharomyces cerevisae; Benzoic Acid Concentration 50 ppm, After 29 days): 1,300,000/ml
Bacteria Count (Saccharomyces cerevisae; Benzoic Acid Concentration 50 ppm, Initial): 2,900/ml
Bacteria Count (Saccharomyces cerevisae; Benzoic Acid Concentration 100 ppm, After 3 days): 670,000/ml
Bacteria Count (Saccharomyces cerevisae; Benzoic Acid Concentration 100 ppm, After 7 days): 530,000/ml
Bacteria Count (Saccharomyces cerevisae; Benzoic Acid Concentration 100 ppm, After 15 days): 600,000/ml
Bacteria Count (Saccharomyces cerevisae; Benzoic Acid Concentration 100 ppm, After 22 days): 1,200,000/ml
Bacteria Count (Saccharomyces cerevisae; Benzoic Acid Concentration 100 ppm, After 29 days): 900,000/ml
Bacteria Count (Saccharomyces cerevisae; Benzoic Acid Concentration 100 ppm, Initial): 2,900/ml
Bacteria Count (Saccharomyces cerevisae; Benzoic Acid Concentration 200 ppm, After 3 days): 510,000/ml
Bacteria Count (Saccharomyces cerevisae; Benzoic Acid Concentration 200 ppm, After 7 days): 430,000/ml
Bacteria Count (Saccharomyces cerevisae; Benzoic Acid Concentration 200 ppm, After 15 days): 350,000/ml
Bacteria Count (Saccharomyces cerevisae; Benzoic Acid Concentration 200 ppm, After 22 days): 400,000/ml
Bacteria Count (Saccharomyces cerevisae; Benzoic Acid Concentration 200 ppm, After 29 days): 400,000/ml
Bacteria Count (Saccharomyces cerevisae; Benzoic Acid Concentration 200 ppm, Initial): 2,900/ml
Bacteria Count (Saccharomyces cerevisae; Benzoic Acid Concentration 300 ppm, After 3 days): 630,000/ml
Bacteria Count (Saccharomyces cerevisae; Benzoic Acid Concentration 300 ppm, After 7 days): 400,000/ml
Bacteria Count (Saccharomyces cerevisae; Benzoic Acid Concentration 300 ppm, After 15 days): 520,000/ml
Bacteria Count (Saccharomyces cerevisae; Benzoic Acid Concentration 300 ppm, After 22 days): 250,000/ml
Bacteria Count (Saccharomyces cerevisae; Benzoic Acid Concentration 300 ppm, After 29 days): 230,000/ml
Bacteria Count (Saccharomyces cerevisae; Benzoic Acid Concentration 300 ppm, Initial): 2,900/ml
Bacteria Count (Saccharomyces cerevisae; Benzoic Acid Concentration 500 ppm, After 3 days): 700 mL⁻¹
Bacteria Count (Saccharomyces cerevisae; Benzoic Acid Concentration 500 ppm, After 7 days): 55,000/ml
Bacteria Count (Saccharomyces cerevisae; Benzoic Acid Concentration 500 ppm, After 15 days): 230,000/ml
Bacteria Count (Saccharomyces cerevisae; Benzoic Acid Concentration 500 ppm, After 22 days): 120,000/ml
Bacteria Count (Saccharomyces cerevisae; Benzoic Acid Concentration 500 ppm, After 29 days): 43,000/ml
Bacteria Count (Saccharomyces cerevisae; Benzoic Acid Concentration 500 ppm, Initial): 2,900/ml
yeast growth (in words) (Saccharomyces cerevisae; benzoic acid concentration of 500 ppm, after 29 days of contact time): high yeast growth
Anion, dis. ([1]; pH Value 3): 6%
Anion, dis. ([1]; pH Value 3.5): 16.7%
Anion, dis. ([1]; pH Value 4.0): 38.7%
Anion, dis. ([1]; pH Value 5.0): 86.5%

C/C=C/C=C/C(=O)[O-].[K+] [Potassium Sorbate]
Bacteria Count (bacteria): 1.6×10^10
Solubility, Water [2]: 138 g/100 g

C/C=C/C=C/C(=O)O [Sorbic Acid]
Anion, dis. ([1]; pH Value 3): 1.7%
Anion, dis. ([1]; pH Value 4.0): 14.7%
Anion, dis. ([1]; pH Value 5.0): 63%
